# Several values for one entry are separate records, joined by “and”; a condition that tells them apart may be missing. Equal entries are not always repeated.
# How the values were obtained:
# [1] = molecular target: T1, receptor tyrosine kinase AXL (Homo sapiens, UniProt P30530); assay: Enzyme activity of receptor tyrosine kinase AXL (ELISA); type: biochemical; details: for inhibition at 0.01 µM: 10 nM; for inhibition at 0.01 µM / inhibition at 0.1 µM / inhibition at 1 µM / inhibition at 0.001 µM: read-out: AXL activity Inhibitory rate(%); for inhibition at 0.1 µM: 100 nM; for inhibition at 1 µM: 1000 nM; for AXL activity (in words): at 1000, 100, and 10 nM; for inhibition at 0.001 µM: 1 nM
# T1 construct: 50 μL of AXL kinase domain recombinant protein diluted in reaction buffer was added to start the reaction; made in house; host or cells: insect cells (baculovirus expression system)
# T1 sequence (P30530 536-807 limits assumed): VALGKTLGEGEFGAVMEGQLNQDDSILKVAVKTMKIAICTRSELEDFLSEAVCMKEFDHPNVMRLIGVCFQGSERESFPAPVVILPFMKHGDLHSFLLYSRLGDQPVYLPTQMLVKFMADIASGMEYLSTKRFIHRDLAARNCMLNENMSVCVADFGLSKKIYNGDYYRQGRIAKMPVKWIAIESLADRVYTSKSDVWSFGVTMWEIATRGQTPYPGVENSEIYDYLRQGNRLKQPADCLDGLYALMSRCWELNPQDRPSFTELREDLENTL
# Description: Detection method: Enzyme-linked immunosorbent assay (ELISA)
# Tested receptor tyrosine kinase: AXL
# The full-wavelength microplate reader for experiment reading was a product of Molecular Device, model: SpectraMax 190; the experiment water was distilled water produced by Sinopharm Group.
# Compound preparation: The compounds were centrifuged at 12,000 g for 5 min, and DMSO was added to prepare a 10^−2M stock solution, vortexed evenly and sonicated for 10 min for use, and stored at −40° C. During the test, the compound was diluted from the stock solution to 100 times the tested concentration with DMSO (the DMSO concentration in the system was 1%).
# 1. […] Discard the liquid from the well. The plate was washed and washed three times with T-PBS (0.1% Tween-20 in potassium-free PBS, 200 μL/well) for 5 minutes each time.
# 2. 49 μL of ATP solution diluted with reaction buffer (50 mM HEPES pH 7.4, 50 mM MgCl2, 0.5 mM MnCl2, 0.2 mM Na3VO4, 1 mM DTT) was added to each well, and […] of the tested compound was added to each well, and then 50 μL of AXL kinase domain recombinant protein diluted in reaction buffer was added to start the reaction. Two control wells without ATP were added in each experiment. (100 rpm) Reacted in 37° C. shaker for 1 hour. Discard the liquid from the well, and the plate was washed with T-PBS for three times.
# 3. […] Discard the liquid from the well, and the plate was washed with T-PBS for three times.
# 4. The horseradish peroxidase-labeled goat anti-mouse second antibody dilution (antibody diluted 1:2000 with BSA 5 mg/mL in T-PBS), 100 μL/well, and reacted in 37° C. shaker for 0.5 hours. Discard the liquid from the well, and the plate was washed with T-PBS for three times.
# 6. The reaction was quenched with 50 μL/well 2M […], and read at 490 nm using a tunable microplate reader VERSAmax.
# The IC50 values were obtained by four-parameter regression analysis using the software supplied with the microplate reader.
# [2] = molecular target: receptor tyrosine kinase c-Met (Homo sapiens, UniProt P08581); assay: In vitro c-Met kinase inhibitory activity; type: biochemical; details: two values per compound; for inhibition at 0.01 µM / inhibition at 0.1 µM / inhibition at 0.001 µM: read-out: c-Met Inhibitory rate (%)
# receptor tyrosine kinase c-Met, sequence (P08581 25-1390): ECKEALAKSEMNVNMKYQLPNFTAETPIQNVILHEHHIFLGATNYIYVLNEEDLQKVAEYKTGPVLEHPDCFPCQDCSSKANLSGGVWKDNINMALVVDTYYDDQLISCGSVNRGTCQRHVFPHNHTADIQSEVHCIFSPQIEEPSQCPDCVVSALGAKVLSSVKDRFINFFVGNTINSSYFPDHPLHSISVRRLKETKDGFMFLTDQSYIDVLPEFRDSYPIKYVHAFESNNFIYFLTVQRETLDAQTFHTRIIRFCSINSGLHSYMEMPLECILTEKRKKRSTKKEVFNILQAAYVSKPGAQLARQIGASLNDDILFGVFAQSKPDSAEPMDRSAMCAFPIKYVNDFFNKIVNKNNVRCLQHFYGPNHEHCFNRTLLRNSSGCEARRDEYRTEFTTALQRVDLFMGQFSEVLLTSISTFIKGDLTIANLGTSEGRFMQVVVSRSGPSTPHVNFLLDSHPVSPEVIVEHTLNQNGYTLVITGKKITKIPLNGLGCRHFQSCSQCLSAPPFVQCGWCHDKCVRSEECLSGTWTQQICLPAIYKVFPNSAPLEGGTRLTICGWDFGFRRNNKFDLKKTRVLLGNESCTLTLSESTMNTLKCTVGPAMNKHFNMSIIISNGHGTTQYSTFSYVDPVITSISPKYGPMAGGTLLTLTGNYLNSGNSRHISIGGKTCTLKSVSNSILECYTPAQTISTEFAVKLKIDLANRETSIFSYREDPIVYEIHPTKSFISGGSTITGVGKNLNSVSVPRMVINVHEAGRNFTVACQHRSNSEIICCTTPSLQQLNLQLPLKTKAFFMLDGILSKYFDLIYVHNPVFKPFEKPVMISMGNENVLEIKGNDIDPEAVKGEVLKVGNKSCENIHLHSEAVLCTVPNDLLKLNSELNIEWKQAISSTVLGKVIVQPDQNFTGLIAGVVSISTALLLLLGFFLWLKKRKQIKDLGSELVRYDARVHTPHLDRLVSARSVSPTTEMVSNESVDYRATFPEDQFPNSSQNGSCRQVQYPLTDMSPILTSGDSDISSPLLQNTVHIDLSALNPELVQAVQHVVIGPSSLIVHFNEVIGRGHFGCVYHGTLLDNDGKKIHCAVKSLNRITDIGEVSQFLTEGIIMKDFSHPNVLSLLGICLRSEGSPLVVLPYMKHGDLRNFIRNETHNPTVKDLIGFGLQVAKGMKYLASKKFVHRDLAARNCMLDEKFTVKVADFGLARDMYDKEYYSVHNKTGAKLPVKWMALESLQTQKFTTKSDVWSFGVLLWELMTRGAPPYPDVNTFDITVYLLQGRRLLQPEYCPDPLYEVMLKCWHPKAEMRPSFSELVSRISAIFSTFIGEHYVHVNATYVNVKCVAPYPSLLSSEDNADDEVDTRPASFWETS
# Source text: Experimental Example 3: Study of In Vitro c-Met Kinase Inhibitory Activity
# Since the screening results of 369 kinase profiles of compound DC621044 has shown that the compound has a certain inhibitory activity on c-Met. We further screened some compounds for their inhibitory activity on c-Met kinase.
Structure (SMILES),inhibition at 0.01 µM [1],inhibition at 0.1 µM [1],inhibition at 1 µM [1],AXL activity (in words) [1],inhibition at 0.001 µM [1],"c-Met Inhibitory rate (%) ([2]; 1 nM, 0.001 µM)","c-Met Inhibitory rate (%) ([2]; 10 nM, 0.01 µM)",inhibition at 0.01 µM ([2]; 10 nM),"c-Met Inhibitory rate (%) ([2]; 100 nM, 0.1 µM)",inhibition at 0.1 µM ([2]; 100 nM),inhibition at 0.001 µM ([2]; 1 nM)
"COc1nc(OC)nc(Oc2ccc(NC(=O)c3c4n(n(-c5ccccc5)c3=O)CCCC4)cc2)n1 [DC621003, N-(4-((4,6-dimethoxy-1,3,5-triazine-2-yl)oxy)phenyl)-2-oxo-1-phenyl-1,2,4,5,6,7-hexahydro[1,5-a]pyridine-3-formamide, reference compound]",-15.5%,2.8%,-7.2%,almost no activity,–,–,–,–,–,–,–
"Cc1nccc(Oc2ccc(NC(=O)c3c4n(n(-c5ccccc5)c3=O)CCCC4)cc2)n1 [DC621005, N-(4-((2-methylpyrimidine-4-yl)oxy)phenyl)-2-oxo-1-phenyl-1,2,4,5,6,7-hexahydro[1,5-a]pyridine-3-formamide, reference compound]",-14.6%,18.3%,-7.8%,almost no activity,–,–,–,–,–,–,–
"O=C(Nc1ccc(Oc2ncnc3cc4c(cc23)OCCOCCOCCO4)c(F)c1)c1c2n(n(-c3ccccc3)c1=O)CCCC2 [DC621061, N-(3-fluoro-4-((7,8,10,11,13,14-hexahydro-[1,4,7,10]tetraoxacyclododecane [2,3-g]quinazolin-4-yl)oxy)phenyl)-2-oxo-1-phenyl-1,2,4,5,6,7-hexahydropyrazolo[1,5-a]pyridine-3-formamide]",66.7%,91.8%,–,–,22.9%,35.7% and 61.1%,62.4%,51.1%,95.7%,94.7%,–
"O=C(Nc1ccc(Oc2ncnc3cc4c(cc23)OCCOCCOCCO4)c(Cl)c1)c1c2n(n(-c3ccccc3)c1=O)CCCC2 [DC621062, N-(3-chloro-4-((7,8,10,11,13,14-hexahydro-[1,4,7,10]tetraoxacyclododecane [2,3-g]quinazolin-4-yl)oxy)phenyl)-2-oxo-1-phenyl-1,2,4,5,6,7-hexahydropyrazolo[1,5-a]pyridine-3-formamide]",43%,70.6%,–,–,6.3%,35.9% and 68.6%,78.1% and 98.9%,–,100%,99.8%,–
"O=C(Nc1ccc(Oc2ncnc3cc4c(cc23)OCCOCCOCCO4)c(Cl)c1)c1c2n(n(-c3cc(F)ccc3F)c1=O)CCCC2 [DC621064, 1-(2,5-difluorophenyl)-N-(3-chloro-4-((7,8,10,11,13,14-hexahydro-[1,4,7,10]tetraoxacyclododecane [2,3-g]quinazolin-4-yl)oxy)phenyl)-2-oxo-1,2,4,5,6,7-hexahydropyrazolo[1,5-a]pyridine-3-formamide]",47.4%,83.4%,–,–,30.8%,–,–,–,–,–,–
"O=C(Nc1ccc(Oc2ncnc3cc4c(cc23)OCCOCCOCCO4)c(F)c1)c1c2n(n(-c3ccccc3F)c1=O)CCCC2 [DC621065, N-(3-fluoro-4-((7,8,10,11,13,14-hexahydro-[1,4,7,10]tetraoxacyclododecane [2,3-g]quinazolin-4-yl)oxy)phenyl)-1-(2-fluorophenyl)-2-oxo-1,2,4,5,6,7-hexahydropyrazolo[1,5-a]pyridine-3-formamide]",45.8%,95%,–,–,29.6%,–,–,–,–,–,–
"O=C(Nc1ccc(Oc2ncnc3cc4c(cc23)OCCOCCOCCO4)c(Cl)c1)c1c2n(n(-c3ccc(F)cc3)c1=O)CCCC2 [DC621068, N-(3-chloro-4-((7,8,10,11,13,14-hexahydro-[1,4,7,10]tetraoxacyclododecane[2,3-g]quinazolin-4-yl)oxy)phenyl)-1-(4-fluorophenyl)-2-oxo-1,2,4,5,6,7-hexahydropyrazolo[1,5-a]pyridine-3-formamide]",55.1%,85.8%,–,–,16.5%,46.0%,85.9%,71.2%,–,100%,34%
"COCCOc1cc2ncnc(Oc3ccc(NC(=O)c4c5n(n(-c6ccccc6)c4=O)CCCC5)cc3Cl)c2cc1OCCOC [DC621070, N-(4-((6,7-bis(2-methoxyethoxy)quinazolin-4-yl)oxy)-3-chlorophenyl)-2-oxo-1-phenyl-1,2,4,5,6,7-hexahydropyrazolo[1,5-a]pyridine-3-formamide]",60.5%,91.1%,–,–,2.4%,–,–,–,–,–,–
"COCCOc1cc2ncnc(Oc3ccc(NC(=O)c4c5n(n(-c6ccccc6)c4=O)CCCC5)cc3C(F)(F)F)c2cc1OCCOC [DC621072, N-(4-((6,7-bis(2-methoxyethoxy)quinazolin-4-yl)oxy)-3-trifluoromethylphenyl)-2-oxo-1-phenyl-1,2,4,5,6,7-hexahydropyrazolo[1,5-a]pyridine-3-formamide]",52.1%,75.9%,–,–,34.8%,34.3%,68.4%,67.6%,96.6%,95.8%,24.1%
"COCCOc1cc2ncnc(Oc3ccc(NC(=O)c4c5n(n(-c6cc(F)ccc6F)c4=O)CCCC5)cc3Cl)c2cc1OCCOC [DC621080, 1-(2,5-difluorophenyl)-N-(4-((6,7-bis(2-methoxyethoxy)quinazolin-4-yl)oxy)-3-chlorophenyl)-2-oxo-1,2,4,5,6,7-hexahydropyrazolo[1,5-a]pyridine-3-formamide]",76.4%,100%,–,–,35.5%,–,58.3%,68.8%,93.5%,97.1%,–
"COc1cc2ncnc(Oc3ccc(NC(=O)c4c5n(n(-c6cc(F)ccc6F)c4=O)CCCC5)cc3C(F)(F)F)c2cc1OC [DC621081, 1-(2,5-difluorophenyl)-N-(4-((6,7-dimethoxyquinazoline-4-yl)oxy)-3-trifluoromethylphenyl)-2-oxo-1,2,4,5,6,7-hexahydropyrazolo[1,5-a]pyridine-3-formamide]",34.9%,79.2%,–,–,16.3%,–,–,–,–,–,–
"COCCOc1cc2ncnc(Oc3ccc(NC(=O)c4c5n(n(-c6ccccc6F)c4=O)CCCC5)cc3Cl)c2cc1OCCOC [DC621090, N-(4-((6,7-bis(2-methoxyethoxy)quinazolin-4-yl)oxy)-3-chlorophenyl)-1-(2-fluorophenyl)-2-oxo-1,2,4,5,6,7-hexahydropyrazolo[1,5-a]pyridine-3-formamide]",62.9%,92.7%,–,–,21.1%,–,–,–,–,–,–
"COCCOc1cc2ncnc(Oc3ccc(NC(=O)c4c5n(n(-c6ccccc6F)c4=O)CCCC5)cc3C(F)(F)F)c2cc1OCCOC [DC621092, N-(4-((6,7-bis(2-methoxyethoxy)quinazolin-4-yl)oxy)-3-trifluoromethylphenyl)-1-(2-fluorophenyl)-2-oxo-1,2,4,5,6,7-hexahydropyrazolo[1,5-a]pyridine-3-formamide]",61%,78%,–,–,4.8%,16.8%,53.1%,71.6%,89.8%,94.2%,25.3%
